Converted amounts (≈) assume the structure as drawn.

Common to all, as to design: agar dilution MIC, growth inhibition of clinical Burkholderia isolates
A general note: In agar dilution, organisms are placed on agar that contains the substance at set levels.

One assay has as its system T1, B. cepacia AU15249.
T1 construct: AU15249
The experiment in a line: microbe, parasite or virus in culture. The following applies: Burkholderia cepacia, AU15249. From the text:
(§1) We evaluated the activity of cefepime-taniborbactam against a panel of 140 Bcc clinical isolates (i.e., species ambifaria, arboris, cenocepacia, cepacia, contaminans, diffusa, dolosa, multivorans, pseudomultivorans, pyrrocinia, seminalis, stabilis, ubonensis, and vietnamiensis) and 10 B. gladioli from the Burkholderia cepacia Research Laboratory and Repository (University of Michigan) ([22], [25], [31]) (Supplementary Material, Tables S1 and S2). K. pneumoniae ATCC 700603 carrying bla SHV-18 and K. pneumoniae ATCC BAA-1705 harboring bla KPC strains were used as controls for β-lactam and β-lactamase inhibitor integrity; all controls tested within the anticipated quality control ranges (Table S3). Minimum inhibitory concentration (MIC) results were interpreted using Clinical Laboratory Standards Institute (CLSI) breakpoints, where available ([32]). […] An alternative cefepime-taniborbactam provisional susceptible breakpoint of ≤16 µg/mL is supported by in vivo efficacy data from neutropenic murine infection models (thigh, complicated urinary tract, and lung) ([15] [–] [17]) and data from safety and pharmacokinetics studies in human volunteers ([33], [34]). The cefepime-taniborbactam antimicrobial activity was compared to cefepime, meropenem, meropenem-vaborbactam, and levofloxacin, to data published for first-line agents (e.g., ceftazidime and trimethoprim-sulfamethoxazole) and to those recommended by the CLSI for clinical testing (e.g., minocycline) against the Bcc and B. gladioli panel ([22], [32]). Of note, the MICs of all these agents were determined by the agar dilution method, which alongside broth microdilution, are recommended by the CLSI to assess the antimicrobial susceptibility of Bcc isolates ([32]).

Another assay relates to T2, B. multivorans AU25626.
T2 construct: AU25626
Description: microbe, parasite or virus in culture. The following applies: Burkholderia multivorans, AU25626.
Description: as §1

Another assay deals with T3, B. cenocepacia AU19684.
T3 construct: AU19684
The experiment in a line: microbe, parasite or virus in culture. The following applies: Burkholderia cenocepacia, AU19684.
Description: as §1

The subject of a further assay is T4, B. multivorans AU17545.
T4 construct: AU17545
Description: microbe, parasite or virus in culture. The following applies: Burkholderia multivorans, AU17545.
Description: as §1

The test system of a further assay is T5, B. cenocepacia AU12571.
T5 construct: AU12571
Description: microbe, parasite or virus in culture. The following applies: Burkholderia cenocepacia, AU12571.
Description: as §1

For the next assay, the system named is T6, B. multivorans AU15814.
T6 construct: AU15814
Description: microbe, parasite or virus in culture. The following applies: Burkholderia multivorans, AU15814.
Description: as §1

The subject of a further assay is T7, B. seminalis AU14842.
T7 construct: AU14842
Description: organism not typed.
Description: as §1

In the next assay the test system is T8, B. multivorans AU23668.
T8 construct: AU23668
Description: microbe, parasite or virus in culture. To be noted: Burkholderia multivorans, AU23668.
Description: as §1

The next assay relates to T9, B. dolosa AU29985.
T9 construct: AU29985
Description: microbe, parasite or virus in culture. The following applies: Burkholderia dolosa, AU29985.
Description: as §1

A further assay deals with T10, B. ambifaria AU19862.
T10 construct: AU19862
The experiment in a line: microbe, parasite or virus in culture. To be noted: Burkholderia ambifaria, AU19862.
Description: as §1

In the next assay the test system is T11, B. multivorans AU23690.
T11 construct: AU23690
Description: microbe, parasite or virus in culture. To be noted: Burkholderia multivorans, AU23690.
Description: as §1

For another assay, the system named is T12, B. multivorans AU10897.
T12 construct: AU10897
Description: microbe, parasite or virus in culture. To be noted: Burkholderia multivorans, AU10897.
Description: as §1

In another assay the test system is T13, B. dolosa AU12872.
T13 construct: AU12872
Description: microbe, parasite or virus in culture. To be noted: Burkholderia dolosa, AU12872.
Description: as §1

A further assay relates to T14, B. cenocepacia AU12659.
T14 construct: AU12659
The experiment in a line: microbe, parasite or virus in culture. To be noted: Burkholderia cenocepacia, AU12659.
Description: as §1

Another assay relates to T15, B. ambifaria AU20319.
T15 construct: AU20319
Description: microbe, parasite or virus in culture. To be noted: Burkholderia ambifaria, AU20319.
Description: as §1

The test system of a further assay is T16, B. cepacia AU29493.
T16 construct: AU29493
Description: microbe, parasite or virus in culture. To be noted: Burkholderia cepacia, AU29493.
Description: as §1

The test system of the next assay is T17, B. contaminans AU25403.
T17 construct: AU25403
The experiment in a line: organism not typed.
Description: as §1

A further assay has as its system T18, B. cepacia AU22213.
T18 construct: AU22213
Description: microbe, parasite or virus in culture. The following applies: Burkholderia cepacia, AU22213.
Description: as §1

The subject of the next assay is T19, B. cepacia AU13354.
T19 construct: AU13354
The experiment in a line: microbe, parasite or virus in culture. To be noted: Burkholderia cepacia, AU13354.
Description: as §1

The test system of the next assay is T20, B. multivorans AU23365.
T20 construct: AU23365
Description: microbe, parasite or virus in culture. The following applies: Burkholderia multivorans, AU23365.
Description: as §1

The next assay has as its system T21, B. cenocepacia AU6550.
T21 construct: AU6550
The experiment in a line: microbe, parasite or virus in culture. The following applies: Burkholderia cenocepacia, AU6550.
Description: as §1

For the next assay, the system named is T22, B. contaminans AU15669.
T22 construct: AU15669
Description: organism not typed.
Description: as §1

As to `CO/N=C(\C(=O)N[C@@H]1C(=O)N2C(C(=O)[O-])=C(C[N+]3(C)CCCC3)CS[C@H]12)c1csc(N)n1` [cefepime], the MIC against B. cepacia AU15249 was 32 µg/mL (≈ 66.6 µM); with B. multivorans AU25626, 8 µg/mL (≈ 16.6 µM); in the assay on B. cenocepacia AU19684, above 32 µg/mL; in the assay on B. multivorans AU17545 it was 16 µg/mL (≈ 33.3 µM); against B. cenocepacia AU12571, 16 µg/mL (≈ 33.3 µM); against B. multivorans AU15814, 32 µg/mL (≈ 66.6 µM). Moreover, the MIC against B. seminalis AU14842 is 16 µg/mL (≈ 33.3 µM); in the assay with B. multivorans AU23668, 4 µg/mL (≈ 8.32 µM); against B. dolosa AU29985, above 32 µg/mL; with B. ambifaria AU19862, 16 µg/mL (≈ 33.3 µM); against B. multivorans AU23690 it was 32 µg/mL (≈ 66.6 µM); with B. multivorans AU10897, 32 µg/mL (≈ 66.6 µM). Besides, the MIC against B. dolosa AU12872 is above 32 µg/mL; in the assay with B. cenocepacia AU12659, 16 µg/mL (≈ 33.3 µM); in the assay with B. ambifaria AU20319, above 32 µg/mL; with B. cepacia AU29493 it was above 32 µg/mL; against B. contaminans AU25403, 8 µg/mL (≈ 16.6 µM); in the assay on B. cepacia AU22213, 32 µg/mL (≈ 66.6 µM). The MIC was above 32 µg/mL in the assay with B. cepacia AU13354, above 32 µg/mL against B. multivorans AU23365, 32 µg/mL (≈ 66.6 µM) against B. cenocepacia AU6550 and above 32 µg/mL against B. contaminans AU15669.

Turning to `C[C@H]1COc2c(N3CCN(C)CC3)c(F)cc3c(=O)c(C(=O)O)cn1c23` [levofloxacin], the MIC is 4 µg/mL (≈ 11.1 µM) in the assay on B. cepacia AU15249; 4 µg/mL (≈ 11.1 µM) with B. multivorans AU25626; above 32 µg/mL in the assay with B. cenocepacia AU19684; 8 µg/mL (≈ 22.1 µM) against B. multivorans AU17545; 8 µg/mL (≈ 22.1 µM) against B. cenocepacia AU12571; 16 µg/mL (≈ 44.3 µM) in the assay with B. multivorans AU15814. The MIC was 4 µg/mL (≈ 11.1 µM) in the assay on B. seminalis AU14842; 2 µg/mL (≈ 5.53 µM) against B. multivorans AU23668; above 32 µg/mL against B. dolosa AU29985; 8 µg/mL (≈ 22.1 µM) against B. ambifaria AU19862; above 32 µg/mL against B. multivorans AU23690; 16 µg/mL (≈ 44.3 µM) in the assay on B. multivorans AU10897. For the same compound, the MIC is above 32 µg/mL against B. dolosa AU12872; 1 µg/mL (≈ 2.77 µM) in the assay on B. cenocepacia AU12659; 1 µg/mL (≈ 2.77 µM) against B. ambifaria AU20319; 8 µg/mL (≈ 22.1 µM) in the assay with B. cepacia AU29493; 2 µg/mL (≈ 5.53 µM) in the assay on B. contaminans AU25403; 2 µg/mL (≈ 5.53 µM) against B. cepacia AU22213. Moreover, the MIC with B. cepacia AU13354, in the assay on B. multivorans AU23365, in the assay on B. cenocepacia AU6550 and in the assay with B. contaminans AU15669 was 8 µg/mL (≈ 22.1 µM) throughout.

In the case of `C[C@@H](O)[C@H]1C(=O)N2C(C(=O)O)=C(S[C@@H]3CN[C@H](C(=O)N(C)C)C3)[C@H](C)[C@H]12` [meropenem], the MIC with B. cepacia AU15249 was 4 µg/mL (≈ 10.4 µM); against B. multivorans AU25626, above 32 µg/mL; in the assay on B. cenocepacia AU19684 it was 8 µg/mL (≈ 20.9 µM); against B. multivorans AU17545 it was 2 µg/mL (≈ 5.22 µM); against B. cenocepacia AU12571, 2 µg/mL (≈ 5.22 µM); with B. multivorans AU15814 it was above 32 µg/mL. Also, the MIC against B. seminalis AU14842 is 4 µg/mL (≈ 10.4 µM); in the assay with B. multivorans AU23668, 2 µg/mL (≈ 5.22 µM); against B. dolosa AU29985, above 32 µg/mL; against B. ambifaria AU19862, 2 µg/mL (≈ 5.22 µM); against B. multivorans AU23690 it was 4 µg/mL (≈ 10.4 µM); against B. multivorans AU10897, 8 µg/mL (≈ 20.9 µM). Moreover, the MIC against B. dolosa AU12872 worked out at 32 µg/mL (≈ 83.4 µM); against B. cenocepacia AU12659 it was 4 µg/mL (≈ 10.4 µM); in the assay on B. ambifaria AU20319 it was 4 µg/mL (≈ 10.4 µM); with B. cepacia AU29493 it was 8 µg/mL (≈ 20.9 µM); in the assay with B. contaminans AU25403, 2 µg/mL (≈ 5.22 µM); against B. cepacia AU22213, 4 µg/mL (≈ 10.4 µM). The MIC with B. cepacia AU13354 amounted to 8 µg/mL (≈ 20.9 µM); against B. multivorans AU23365 it was 8 µg/mL (≈ 20.9 µM); against B. cenocepacia AU6550, 8 µg/mL (≈ 20.9 µM); in the assay on B. contaminans AU15669, 16 µg/mL (≈ 41.7 µM).

These data come from publication PMC10648927, “Examining the activity of cefepime-taniborbactam against Burkholderia cepacia complex and Burkholderia gladioli isolated from cystic fibrosis patients in the United States” (Antimicrobial Agents and Chemotherapy, 2023).
